Patent US20250145606A1 (Arcus Biosciences, Inc., priority 2023, published 2025)
Blank lines part the entries; values can stand above or below the compound they belong to.

Columns and labels:
Details in all cases: biochemical, HTRF KinEASE-TK
c-Kit = c-Kit (Homo sapiens (Human), UniProt P10721); assay: Inhibition of c-Kit kinase activity (HTRF KinEASE-TK); assay type: biochemical
Method: (§1) Inhibition of c-Kit, PDGFRα, PDGFRβ, CSFIR and FLT3 Kinase Activity
(§2) Compounds were evaluated to determine the potency with which they inhibit the kinase activity of the following panel of tyrosine kinases: c-Kit (SignalChem, Product #: K06-11BG), PDGFRα (SignalChem, Product #: P12-18G), PDGFRβ (SignalChem, Product #: P13-11G), CSFIR (SignalChem, Product #: C74-11G) and FLT3 (Invitrogen, Product #: PR4666C). Activity was determined as a function of phosphorylated biotinylated TK peptide generated by the transfer of phosphate from ATP as measured by the use of the HTRF KinEASE-TK assay kit (Cisbio, Product #: 62TKOPEJ). Levels of phosphorylated biotinylated TK peptide (Part 61TKOBLC of KinEASE assay kit) are quantified by its capture by phosphor-TK-Antibody-Cryptate (Part of KinEASE assay kit) and XL665-labeled Streptavidin (Part 610SAXLG of KinEASE assay kit) followed by measurement of Time-Resolved Fluorescence Resonance Energy Transfer (TR-FRET) signal. On the day of the assay, compounds were solubilized in DMSO and dispensed into a 384-well white Opti-plate (PerkinElmer, catalog #6007290) to generate a 22 point 1:2 titration. Enzyme solution was prepared for each of the tyrosine kinases in 50 mM HEPES, pH 7.4, 5 mM MgCl2 for c-Kit or 10 mM MgCl2 for FLT3, CSFIR, PDGFRa and PDGFRβ, 2 mM MnCl2, 0.01% Brij-35 and 0.01% BSA. Working enzyme concentrations were prepared for c-Kit at 2 nM (2×), PDGFRa and PDGFRß at 10 nM (2×), CSFIR at 2 nM (2×) and FLT3 at 0.4 nM (2×). Five microliters of enzyme dilution of each tyrosine kinase were added to their respective 384-well white Opti-plate pre-dispensed with compound and allowed to incubate for 1 h at rt. Utilizing the same enzyme buffer recipe, 2x substrate mixes were prepared for each enzyme as follows: For c-Kit, 1.6 μM (2×) TK substrate and 16 μM (2×) ATP (Promega, catalog #V915). For PDGFRα, 3.2 μM TK substrate and 1 μM ATP. For PDGFRβ, 3.2 μM TK substrate and 40 μM ATP. For CSFIR, […] TK substrate and 20 μM ATP. For FLT3, 3.2 μM TK substrate and 100 μM ATP. Reactions were initiated by addition of 5 μL of the respective 2x substrate mix to each well of the plates containing the respective tyrosine kinase enzymes and were allowed to proceed for 120 minutes at rt, except for FLT3, the reaction time is 45 min. Following the reaction, 10 μL of detection mix consisting of 0.2 μM (2×) of Streptavidin-XL665 and 2 μM (2×) of TK-Antibody-Cryptate prepared in detection buffer (Part 62SDBRDF of KinEASE assay kit) was added and then allowed to incubate for 60 min. The TR-FRET signal was quantified by measuring the ratio of emission at 665 nm to 620 nm after excitation at 320 nm by reading on a PerkinElmer Envision multimode reader. Compound potencies (IC50 values) were determined using a standard 4-parameter non-linear regression fit.

PDGFRα = PDGFRα (Homo sapiens (Human), UniProt P16234); assay: Inhibition of PDGFRα kinase activity (HTRF KinEASE-TK)
Method: as §1, §2

PDGFRβ = PDGFRβ (Homo sapiens (Human), UniProt P09619); assay: Inhibition of PDGFRβ kinase activity (HTRF KinEASE-TK)
Method: as §1, §2

CSF1R = CSF1R (Homo sapiens (Human), UniProt P07333); assay: Inhibition of CSF1R kinase activity (HTRF KinEASE-TK)
Method: as §1, §2

c-Kit, sequence (P10721 26-976): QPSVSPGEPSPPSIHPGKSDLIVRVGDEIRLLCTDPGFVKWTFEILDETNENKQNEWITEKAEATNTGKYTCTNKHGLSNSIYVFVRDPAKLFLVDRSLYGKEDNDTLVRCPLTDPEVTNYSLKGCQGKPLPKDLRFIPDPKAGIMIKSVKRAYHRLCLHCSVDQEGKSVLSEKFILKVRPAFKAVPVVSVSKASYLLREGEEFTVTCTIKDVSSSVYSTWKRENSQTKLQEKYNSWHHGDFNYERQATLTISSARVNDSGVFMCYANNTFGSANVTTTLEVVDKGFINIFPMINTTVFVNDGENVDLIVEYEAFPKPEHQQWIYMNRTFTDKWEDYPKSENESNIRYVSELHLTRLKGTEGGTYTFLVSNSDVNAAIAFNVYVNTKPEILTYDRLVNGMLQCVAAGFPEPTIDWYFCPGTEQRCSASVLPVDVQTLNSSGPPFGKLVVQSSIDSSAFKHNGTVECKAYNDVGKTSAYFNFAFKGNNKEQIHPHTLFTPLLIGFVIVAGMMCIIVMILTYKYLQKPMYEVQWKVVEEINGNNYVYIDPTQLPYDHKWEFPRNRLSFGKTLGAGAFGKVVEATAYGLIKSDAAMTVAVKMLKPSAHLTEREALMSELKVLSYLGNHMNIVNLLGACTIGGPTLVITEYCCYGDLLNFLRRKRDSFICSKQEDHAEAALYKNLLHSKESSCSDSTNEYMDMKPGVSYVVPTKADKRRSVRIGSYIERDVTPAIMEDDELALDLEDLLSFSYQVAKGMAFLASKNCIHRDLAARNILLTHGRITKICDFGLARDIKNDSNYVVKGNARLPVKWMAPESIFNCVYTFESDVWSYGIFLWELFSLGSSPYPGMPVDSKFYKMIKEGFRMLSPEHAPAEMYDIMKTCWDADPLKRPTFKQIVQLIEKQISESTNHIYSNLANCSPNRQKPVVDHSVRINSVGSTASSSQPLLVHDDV
PDGFRβ, sequence (P09619 33-1106): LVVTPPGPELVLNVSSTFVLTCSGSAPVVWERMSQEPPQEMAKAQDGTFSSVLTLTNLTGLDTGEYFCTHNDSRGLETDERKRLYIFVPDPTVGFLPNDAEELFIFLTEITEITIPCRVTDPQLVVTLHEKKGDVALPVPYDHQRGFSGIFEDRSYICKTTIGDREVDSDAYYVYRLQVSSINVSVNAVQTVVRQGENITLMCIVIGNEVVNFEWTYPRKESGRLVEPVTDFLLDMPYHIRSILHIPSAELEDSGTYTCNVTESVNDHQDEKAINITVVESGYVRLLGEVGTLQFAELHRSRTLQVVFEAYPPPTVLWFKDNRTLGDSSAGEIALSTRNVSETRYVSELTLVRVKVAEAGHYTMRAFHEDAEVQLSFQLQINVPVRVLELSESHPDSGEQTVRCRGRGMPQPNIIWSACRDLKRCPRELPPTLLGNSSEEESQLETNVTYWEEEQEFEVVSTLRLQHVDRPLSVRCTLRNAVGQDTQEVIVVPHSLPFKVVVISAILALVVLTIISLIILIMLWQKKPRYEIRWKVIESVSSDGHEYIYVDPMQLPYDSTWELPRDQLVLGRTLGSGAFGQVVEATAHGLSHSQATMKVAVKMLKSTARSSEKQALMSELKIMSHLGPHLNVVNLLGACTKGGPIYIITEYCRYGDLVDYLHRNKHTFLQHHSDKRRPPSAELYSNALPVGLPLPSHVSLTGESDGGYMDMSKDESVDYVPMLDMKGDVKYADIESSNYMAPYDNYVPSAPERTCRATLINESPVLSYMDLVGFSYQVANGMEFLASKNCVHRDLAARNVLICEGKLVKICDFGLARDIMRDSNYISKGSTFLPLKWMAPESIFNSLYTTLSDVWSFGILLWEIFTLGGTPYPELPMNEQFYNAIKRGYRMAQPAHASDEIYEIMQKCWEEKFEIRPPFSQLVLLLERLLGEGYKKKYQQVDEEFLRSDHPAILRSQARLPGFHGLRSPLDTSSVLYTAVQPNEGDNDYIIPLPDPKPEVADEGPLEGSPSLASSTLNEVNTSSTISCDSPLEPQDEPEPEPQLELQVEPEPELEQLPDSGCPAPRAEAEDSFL
PDGFRα, sequence (P16234 24-1089): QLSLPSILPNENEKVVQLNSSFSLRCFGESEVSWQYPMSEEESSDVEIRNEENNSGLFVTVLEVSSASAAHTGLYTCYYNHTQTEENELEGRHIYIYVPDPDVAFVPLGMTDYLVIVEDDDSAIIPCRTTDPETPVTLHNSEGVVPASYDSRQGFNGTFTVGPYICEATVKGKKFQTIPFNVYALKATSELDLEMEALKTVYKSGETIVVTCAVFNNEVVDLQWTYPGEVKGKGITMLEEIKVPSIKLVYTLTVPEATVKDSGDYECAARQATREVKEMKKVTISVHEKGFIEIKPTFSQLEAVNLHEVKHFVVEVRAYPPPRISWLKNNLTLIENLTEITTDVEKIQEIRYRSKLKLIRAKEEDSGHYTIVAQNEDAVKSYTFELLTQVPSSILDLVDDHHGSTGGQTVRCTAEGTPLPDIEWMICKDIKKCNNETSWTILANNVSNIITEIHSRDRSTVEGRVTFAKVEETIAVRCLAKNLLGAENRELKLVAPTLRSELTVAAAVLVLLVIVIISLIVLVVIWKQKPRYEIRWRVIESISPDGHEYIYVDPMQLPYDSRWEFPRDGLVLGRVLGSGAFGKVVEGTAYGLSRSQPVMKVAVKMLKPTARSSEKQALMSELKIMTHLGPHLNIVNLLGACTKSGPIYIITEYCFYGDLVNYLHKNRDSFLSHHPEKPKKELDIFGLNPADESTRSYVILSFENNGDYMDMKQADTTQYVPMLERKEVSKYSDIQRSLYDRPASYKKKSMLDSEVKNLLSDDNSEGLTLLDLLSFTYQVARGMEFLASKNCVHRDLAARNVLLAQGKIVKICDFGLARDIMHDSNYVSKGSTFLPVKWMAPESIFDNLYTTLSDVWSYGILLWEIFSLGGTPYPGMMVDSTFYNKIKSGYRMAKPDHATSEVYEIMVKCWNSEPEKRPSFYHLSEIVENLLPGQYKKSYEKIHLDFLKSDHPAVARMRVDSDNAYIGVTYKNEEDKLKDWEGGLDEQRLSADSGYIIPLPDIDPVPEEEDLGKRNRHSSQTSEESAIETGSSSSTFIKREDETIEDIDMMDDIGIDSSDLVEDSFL
CSF1R, sequence (P07333 20-972): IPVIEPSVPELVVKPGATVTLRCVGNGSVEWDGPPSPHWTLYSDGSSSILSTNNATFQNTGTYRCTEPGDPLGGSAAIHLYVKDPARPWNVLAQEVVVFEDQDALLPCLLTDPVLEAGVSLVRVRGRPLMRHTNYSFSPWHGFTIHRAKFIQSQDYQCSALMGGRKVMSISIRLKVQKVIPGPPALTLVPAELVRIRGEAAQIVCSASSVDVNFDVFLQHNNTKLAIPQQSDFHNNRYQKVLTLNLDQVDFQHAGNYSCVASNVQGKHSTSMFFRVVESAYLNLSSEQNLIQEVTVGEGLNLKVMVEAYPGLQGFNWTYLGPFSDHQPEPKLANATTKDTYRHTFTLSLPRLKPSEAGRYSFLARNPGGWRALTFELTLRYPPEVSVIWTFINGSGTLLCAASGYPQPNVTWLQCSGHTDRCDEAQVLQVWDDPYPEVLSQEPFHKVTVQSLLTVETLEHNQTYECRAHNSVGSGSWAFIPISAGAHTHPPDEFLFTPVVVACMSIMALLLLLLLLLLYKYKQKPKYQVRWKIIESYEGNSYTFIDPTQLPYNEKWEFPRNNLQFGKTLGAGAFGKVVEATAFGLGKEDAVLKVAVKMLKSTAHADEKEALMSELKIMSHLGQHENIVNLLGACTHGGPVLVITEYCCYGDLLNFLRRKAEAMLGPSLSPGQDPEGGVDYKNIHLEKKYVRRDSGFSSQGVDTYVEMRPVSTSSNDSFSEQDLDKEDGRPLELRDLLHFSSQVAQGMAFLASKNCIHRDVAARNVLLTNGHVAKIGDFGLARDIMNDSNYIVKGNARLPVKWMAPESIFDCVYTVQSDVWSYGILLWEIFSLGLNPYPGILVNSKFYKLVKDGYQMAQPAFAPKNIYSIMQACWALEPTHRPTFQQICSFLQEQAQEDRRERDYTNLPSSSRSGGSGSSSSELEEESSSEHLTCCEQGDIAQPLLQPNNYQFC

SMILES: Cc1cc(F)c(C(=O)Nc2nnc(C3CC3)s2)cc1NC(=O)c1cnc(N)s1 [Example 175, 2-Amino-N-[5-[(5-cyclopropyl-1,3,4-thiadiazol-2-yl)carbamoyl]-4-fluoro-2-methylphenyl]-1,3-thiazole-5-carboxamide]
- IC50 (c-Kit): < 100 nM
- IC50 (PDGFRα): 100 to 1000 nM
- IC50 (PDGFRβ): < 100 nM
- IC50 (CSF1R): < 100 nM

SMILES: Cc1cc(F)c(C(=O)Nc2nnc(C3CC3)[nH]2)cc1NC(=O)c1cnc(N)s1 [Example 176, 2-Amino-N-[5-[(5-cyclopropyl-4H-1,2,4-triazol-3-yl)carbamoyl]-4-fluoro-2-methylphenyl]-1,3-thiazole-5-carboxamide]
- IC50 (c-Kit): 100 to 1000 nM
- IC50 (PDGFRα): > 1000 nM
- IC50 (PDGFRβ): > 1000 nM
- IC50 (CSF1R): > 1000 nM

SMILES: Cc1cc(F)c(C(=O)Nc2cc(C3CC3)[nH]n2)cc1NC(=O)c1cnc(N)s1 [Example 177, 2-Amino-N-[5-[(5-cyclopropyl-1H-pyrazol-3-yl)carbamoyl]-4-fluoro-2-methylphenyl]-1,3-thiazole-5-carboxamide]
- IC50 (c-Kit): < 100 nM
- IC50 (PDGFRα): 100 to 1000 nM
- IC50 (PDGFRβ): 100 to 1000 nM
- IC50 (CSF1R): 100 to 1000 nM

SMILES: Cc1cc(F)c(C(=O)Nc2cc(C(F)(F)F)ccn2)cc1NC(=O)c1cnc(N)s1 [Example 178, 2-Amino-N-[4-fluoro-2-methyl-5-[[4-(trifluoromethyl)pyridin-2-yl]carbamoyl]phenyl]-1,3-thiazole-5-carboxamide]
- IC50 (c-Kit): < 100 nM
- IC50 (PDGFRα): < 100 nM
- IC50 (PDGFRβ): < 100 nM
- IC50 (CSF1R): < 100 nM

SMILES: Cc1cc(F)c(C(=O)Nc2cc3n(n2)CCN(C)C3)cc1NC(=O)c1cnc(N)s1 [Example 180, 2-Amino-N-[4-fluoro-2-methyl-5-[(5-methyl-6,7-dihydro-4H-pyrazolo[1,5-a]pyrazin-2-yl)carbamoyl]phenyl]-1,3-thiazole-5-carboxamide]
- IC50 (c-Kit): < 100 nM
- IC50 (PDGFRα): > 1000 nM
- IC50 (PDGFRβ): > 1000 nM
- IC50 (CSF1R): > 1000 nM

SMILES: Cc1cc(F)c(C(=O)Nc2cc3n(n2)CCOC3)cc1NC(=O)c1cnc(N)s1 [Example 182, 2-Amino-N-[5-(6,7-dihydro-4H-pyrazolo [5,1-c][1,4]oxazin-2-ylcarbamoyl)-4-fluoro-2-methylphenyl]-1,3-thiazole-5-carboxamide]
- IC50 (c-Kit): < 100 nM
- IC50 (PDGFRα): > 1000 nM
- IC50 (PDGFRβ): 100 to 1000 nM
- IC50 (CSF1R): > 1000 nM

SMILES: Cc1cc(F)c(C(=O)Nc2ccc3c(c2)NC(=O)C3(C)C)cc1NC(=O)c1cnc(N)s1 [Example 183, 2-Amino-N-[5-[(3,3-dimethyl-2-oxo-1H-indol-6-yl)carbamoyl]-4-fluoro-2-methylphenyl]-1,3-thiazole-5-carboxamide]
- IC50 (c-Kit): < 100 nM
- IC50 (PDGFRα): < 100 nM
- IC50 (PDGFRβ): < 100 nM
- IC50 (CSF1R): 100 to 1000 nM

SMILES: Cc1cc(F)c(C(=O)Nc2ccc3c(c2)C(C)(C)C(=O)N3)cc1NC(=O)c1cnc(N)s1 [Example 184, 2-Amino-N-[5-[(3,3-dimethyl-2-oxo-1H-indol-5-yl)carbamoyl]-4-fluoro-2-methylphenyl]-1,3-thiazole-5-carboxamide]
- IC50 (c-Kit): < 100 nM
- IC50 (PDGFRα): < 100 nM
- IC50 (PDGFRβ): < 100 nM
- IC50 (CSF1R): 100 to 1000 nM

SMILES: CO[C@H]1C[C@@H](n2nccc2NC(=O)c2cc(NC(=O)c3cnc(N)s3)c(C)cc2F)C1 [Example 186, 2-Amino-N-[4-fluoro-5-[[2-(cis-3-methoxycyclobutyl)pyrazol-3-yl]carbamoyl]-2-methylphenyl]-1,3-thiazole-5-carboxamide]
- IC50 (c-Kit): 100 to 1000 nM
- IC50 (PDGFRα): > 1000 nM
- IC50 (PDGFRβ): > 1000 nM
- IC50 (CSF1R): > 1000 nM

SMILES: Cc1cc(F)c(C(=O)Nc2ccc3c(c2)C(F)(F)C(=O)N3)cc1NC(=O)c1cnc(N)s1 [Example 188, 2-Amino-N-[5-[(3,3-difluoro-2-oxo-1H-indol-5-yl)carbamoyl]-4-fluoro-2-methylphenyl]-1,3-thiazole-5-carboxamide]
- IC50 (c-Kit): < 100 nM
- IC50 (PDGFRα): < 100 nM
- IC50 (PDGFRβ): < 100 nM
- IC50 (CSF1R): < 100 nM

SMILES: Cc1cc(F)c(C(=O)Nc2cc(C3CC3)ccn2)cc1NC(=O)c1cnc(N)s1 [Example 190, 2-Amino-N-[5-[(4-cyclopropylpyridin-2-yl)carbamoyl]-4-fluoro-2-methylphenyl]-1,3-thiazole-5-carboxamide]
- IC50 (c-Kit): < 100 nM
- IC50 (PDGFRα): < 100 nM
- IC50 (PDGFRβ): < 100 nM
- IC50 (CSF1R): < 100 nM

SMILES: Cc1cc(F)c(C(=O)Nc2ccc(OC3COC4(CC4)C3)cn2)cc1NC(=O)c1cnc(N)s1 (stereo not drawn) [Example 199, 2-Amino-N-[4-fluoro-2-methyl-5-[[5-(4-oxaspiro[2.4]heptan-6-yloxy)pyridin-2-yl]carbamoyl]phenyl]-1,3-thiazole-5-carboxamide]
- IC50 (c-Kit): < 100 nM
- IC50 (PDGFRα): > 1000 nM
- IC50 (PDGFRβ): > 1000 nM
- IC50 (CSF1R): > 1000 nM

SMILES: Nc1ncc(C(=O)Nc2cc(C(=O)NC3CC3)c(F)cc2Cl)s1 [Example 200, 2-Amino-N-[2-chloro-5-(cyclopropylcarbamoyl)-4-fluorophenyl]-1,3-thiazole-5-carboxamide]
- IC50 (c-Kit): < 100 nM
- IC50 (PDGFRα): 100 to 1000 nM
- IC50 (PDGFRβ): > 1000 nM
- IC50 (CSF1R): > 1000 nM

SMILES: Cc1cc(F)c(C(=O)Nc2ccc(OC3CC3)cn2)cc1NC(=O)c1cnc(NCC(F)F)s1 [Example 235, N-[5-[(5-cyclopropyloxypyridin-2-yl)carbamoyl]-4-fluoro-2-methylphenyl]-2-(2,2-difluoroethylamino)-1,3-thiazole-5-carboxamide]
- IC50 (c-Kit): < 100 nM
- IC50 (PDGFRα): > 1000 nM
- IC50 (PDGFRβ): 100 to 1000 nM
- IC50 (CSF1R): > 1000 nM

Other lines, results leading:

- IC50 (c-Kit): < 100 nM
- IC50 (PDGFRα): > 1000 nM
- IC50 (PDGFRβ): > 1000 nM
- IC50 (CSF1R): > 1000 nM
SMILES: COc1ccc(NC(=O)c2cc(NC(=O)c3cnc(N)s3)c(F)cc2F)nc1 [Example 211, 2-Amino-N-[2,4-difluoro-5-[(5-methoxypyridin-2-yl)carbamoyl]phenyl]-1,3-thiazole-5-carboxamide]

- IC50 (c-Kit): 100 to 1000 nM
- IC50 (PDGFRα): > 1000 nM
- IC50 (PDGFRβ): > 1000 nM
- IC50 (CSF1R): > 1000 nM
SMILES: Cc1cc(F)c(NC(=O)c2cnc(N)s2)cc1C(=O)Nc1ccc(OC2CC2)cn1 [Example 223, 2-Amino-N-[5-[(5-cyclopropyloxypyridin-2-yl)carbamoyl]-2-fluoro-4-methylphenyl]-1,3-thiazole-5-carboxamide]

- IC50 (c-Kit): < 100 nM
- IC50 (PDGFRα): > 1000 nM
- IC50 (PDGFRβ): 100 to 1000 nM
- IC50 (CSF1R): > 1000 nM
SMILES: Cc1cc(Cl)c(C(=O)Nc2ccc(OC3CC3)cn2)cc1NC(=O)c1cnc(N)s1 [Example 224, 2-Amino-N-[4-chloro-5-[(5-cyclopropyloxypyridin-2-yl)carbamoyl]-2-methylphenyl]-1,3-thiazole-5-carboxamide]

- IC50 (c-Kit): < 100 nM
- IC50 (PDGFRα): 100 to 1000 nM
- IC50 (PDGFRβ): < 100 nM
- IC50 (CSF1R): 100 to 1000 nM
SMILES: Cc1cc(F)c(C(=O)Nc2ccc(C(F)C(F)(F)F)cn2)cc1NC(=O)c1cnc(N)s1 (stereo not drawn) [Example 225, 2-Amino-N-[4-fluoro-2-methyl-5-[[5-(1,2,2,2-tetrafluoroethyl)pyridin-2-yl]carbamoyl]phenyl]-1,3-thiazole-5-carboxamide]

- IC50 (c-Kit): < 100 nM
- IC50 (PDGFRα): 100 to 1000 nM
- IC50 (PDGFRβ): 100 to 1000 nM
- IC50 (CSF1R): 100 to 1000 nM
SMILES: COc1ccc(NC(=O)c2cc(NC(=O)c3cnc(N)s3)c(C)cc2F)c(F)c1 [Example 228, 2-Amino-N-[4-fluoro-5-[(2-fluoro-4-methoxyphenyl)carbamoyl]-2-methylphenyl]-1,3-thiazole-5-carboxamide]

- IC50 (c-Kit): < 100 nM
- IC50 (PDGFRα): > 1000 nM
- IC50 (PDGFRβ): > 1000 nM
- IC50 (CSF1R): 100 to 1000 nM
SMILES: Cc1cc(F)c(C(=O)Nc2cccc(F)c2)cc1NC(=O)c1cnc(N)s1 [Example 232, 2-Amino-N-[4-fluoro-5-[(3-fluorophenyl)carbamoyl]-2-methylphenyl]-1,3-thiazole-5-carboxamide]

- IC50 (c-Kit): < 100 nM
- IC50 (PDGFRα): > 1000 nM
- IC50 (PDGFRβ): > 1000 nM
- IC50 (CSF1R): > 1000 nM
SMILES: Cc1cc(F)c(C(=O)Nc2ccccc2F)cc1NC(=O)c1cnc(N)s1 [Example 234, 2-Amino-N-[4-fluoro-5-[(2-fluorophenyl)carbamoyl]-2-methylphenyl]-1,3-thiazole-5-carboxamide]
